Measurements taken from patent US4845130A, “Antihyperlipidemic amines” (United States Borax & Chemical Corporation, priority 1988, dated 1989).
Read-outs that look alike come from different tables or passages of the source.

Columns and labels:
serum triglyceride = test: Serum triglyceride (Fisher-Hycel Triglyceride Test Kit) in mice; assay type: in vivo, male CF1 mice; settings: Mus musculus, 384 h, Day 16; for response vs control in vivo at 20 mg/kg: 20 mg./kg./day intraparenterally; for response vs control in vivo at 8 mg/kg: 8 mg./kg/day, procedure of Example 1
Experimental: (§1) For determining hypolipidemic activity, representative compounds of this invention were suspended in an aqueous 1% carboxymethylcellulose solution and tested at 20 mg./kg./ day administered intraparenterally to male CF1 mice (~25 g.). Six animals were used for each test. On days 9 and 16, blood was collected by tail vein bleeding and the serum separated by centrifugation for three minutes. Serum cholesterol levels were determined by a modified Liebermann-Burchard reaction. Serum triglyceride levels were also determined at 16 days using a Fisher-Hycel Triglyceride Test Kit.
(§2) The procedure of Example 1 was repeated with octade-cylamine and N,N-dimethyl-n-octadecylamine at a dosage of 8 mg./kg/ day.

serum cholesterol [1] = test: Serum cholesterol (modified Liebermann-Burchard reaction) in mice; assay type: in vivo, male CF1 mice; settings: for response vs control in vivo at 20 mg/kg: Mus musculus, 20 mg./kg./day intraparenterally, male CF1 mice; for Serum cholesterol, % of Control, Day 9 / Serum cholesterol, % of Control, Day 16: 8 mg./kg/day, procedure of Example 1
Experimental: as §1, §2

serum cholesterol [2] = test: as above; assay type: in vivo; settings: Mus musculus, clofibrate at its therapeutic dose of 150 mg., male CF1 mice
[3] = 2.5 mg/kg in mice; cited from earlier work
[4] = test system: phosphatidate phosphohydrolase; settings: in vivo; cited from earlier work
cholesterol excretion = settings: mouse, in vivo; cited from earlier work
acetyl CoA synthetase = settings: in vivo; cited from earlier work
[5] = test system: ATP dependent citrate lyase; settings: in vivo; cited from earlier work
[6] = 216 h, Day 9, read-out: Serum Cholesterol, % of Control, Day 9
[7] = 384 h, Day 16, read-out: Serum Cholesterol, % of Control, Day 16

Compound | response vs control in vivo at 20 mg/kg (serum triglyceride; male CF1 mice) [%] | response vs control in vivo at 20 mg/kg (serum cholesterol [1]; [6]) [%] | response vs control in vivo at 20 mg/kg (serum cholesterol [1]; [7]) [%] | also measured
CCCCCCCCCCCCCCCCN [1-hexadecylamine] | 63 ± 6 | 39 ± 5 | 35 ± 4 | –
CCCCCCCCCCCCCCN [1-tetradecylamine] | 54 ± 6 | 50 ± 4 | 34 ± 3 | –
CCCCCCCCCCCCCCCCCCN(C)C [N,N-dimethyl-n-octadecylamine] | 56 ± 3 | 76 ± 6 | 61 ± 5 | response vs control in vivo at 8 mg/kg (serum triglyceride): 84 ± 6%; Serum cholesterol, % of Control, Day 9 (serum cholesterol [1]; Day 9): 91 ± 5 % of Control; Serum cholesterol, % of Control, Day 16 (serum cholesterol [1]; Day 16): 79 ± 5 % of Control
CCCCCCCCCCCCCCCCCCNC [N-methyloctadecylamine] | 64 ± 6 | 51 ± 5 | 44 ± 4 | –
CCOC(=O)C(C)(C)Oc1ccc(Cl)cc1 [clofibrate] | – | – | – | response vs control in vivo at 150 mg (serum cholesterol [2]; [6]): 88 ± 7%; response vs control in vivo at 150 mg (serum cholesterol [2]; [7]): 87 ± 5%; response vs control in vivo at 150 mg (serum triglyceride; clofibrate at its therapeutic dose of 150 mg., male CF1 mice): 75 ± 5%
CCCCCCCCCCN [decylamine] | 59 ± 6 | 48 ± 4 | 38 ± 5 | –
CCCCCCCCCCCCN [dodecylamine] | 64 ± 4 | 63 ± 6 | 61 ± 5 | –
CCCCCCCCCCCCCCCCCCN [octadecylamine] | 56 ± 4 | 72 ± 5 | 64 ± 4 | response vs control in vivo at 8 mg/kg (serum triglyceride): 60 ± 5%; Serum cholesterol, % of Control, Day 9 (serum cholesterol [1]; Day 9): 63 ± 3 % of Control; Serum cholesterol, % of Control, Day 16 (serum cholesterol [1]; Day 16): 57 ± 4 % of Control
CCCCCCCCCCCCCN [tridecylamine] | 73 ± 7 | 69 ± 5 | 67 ± 5 | –
CCCCCCCCCCCN [undecylamine] | 66 ± 5 | 61 ± 5 | 57 ± 6 | –
tetrakis-u-(trimethylamine-borane carboxyato) bis(trimethylaminecarboxyborane)-dicopper (II) | – | – | – | hypolipidemic activity [3]: potent hypolipidemic agent; phosphatidate phosphohydrolase [4]: lower; cholesterol excretion from the body (cholesterol excretion): accelerate cholesterol excretion from the body; acetyl CoA synthetase (acetyl CoA synthetase): lower; ATP dependent citrate lyase [5]: lower
